Consider 59 sequences from the supplement of paper PMC11208160.

The nature of the series: recombinant barcode read abundance after kanamycin selection (control-corrected) (log10(CPM+1)); higher = more efficient recombination; sequences stand for … in AGTGCAGAGAAAATCGGCCAGTTTTCTCTGCCTGCAGTCCGCATGCCGT…AGATTTATGCAGCGGACTGCCTTTCTCCCAAAGTGATAAACCGGACAGTATCATGGACCGGTTTTCCCGGTAATCCGTATTTGCAAGGTTGGTTTCACT; site = the 11-nt target. In outline:
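For this pooled screen, each oligo contained a promoter, a target, a barcode and the J23119-driven first 104 bases of the bridge RNA. Gibson cloning placed it into a vector supplying the remaining 73 bp and a T7-inducible recombinase, and the pool was co-electroporated into E. coli with a donor plasmid. Recombination efficiency is derived from barcode counts per million at recombinant junctions after averaging and control correction, and is expressed on a log scale as log10(CPM+1), with selection on chloramphenicol/ampicillin/kanamycin plus 0.1 mM IPTG against a chloramphenicol/ampicillin LB agar control.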
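Further: IS621 recombinase and bridge RNA in Escherichia coli cells.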

For the sequence “CCTCAGGCTTGGGTTCTAACCTGTTGCCG (site CCTCAGGCTAG)”, the “recombinant barcode read abundance (log10)” value is 0.0315.
Turning to “CCTCAGGCTTGGGTTCTAACCTGTTGCCG (site CCTCAGGCTCG)”, the “recombinant barcode read abundance (log10)” value amounted to 0.229.
On to “CCTCAGGCTTGGGTTCTAACCTGTTGCCG (site CCTCAGGCTGG)”, for which the “recombinant barcode read abundance (log10)” value was found to be 0.107.
The result for “CCTCAGGCTTGGGTTCTAACCTGTTGCCG (site CCTCAGGCTTG)” reads 0.125; that for “CCTCAGTCTTGGGTTCTAACCTGTTGCGA (site CCTCACTCTCC)”, 0.0773; that for “CCTCAGTCTTGGGTTCTAACCTGTTGCGA (site CCTCAGTCTTC)”, 1.81.
For “CCTCATTCTTGGGTTCTAACCTGTTGCTT (site CCTCAATCTAA)”, the “recombinant barcode read abundance (log10)” value came out at 0.0648.
For “CCTCATTCTTGGGTTCTAACCTGTTGCTT (site CCTCACTCTAA)” the value was 0; for “CCTCATTCTTGGGTTCTAACCTGTTGCTT (site CCTCAGTCTAA)”, 0.142; for “CCTCATTCTTGGGTTCTAACCTGTTGCTT (site CCTCATTCTAA)”, 0.199.
As to “CCTCTGGCTTGGGTTCTAACCTGTTGCCT (site CCGCTGTCTAG)”, the “recombinant barcode read abundance (log10)” value was 0.808.
For “CCTCTGGCTTGGGTTCTAACCTGTTGCCT (site CCTCTGGCTAG)” the value was 0.514.
For the sequence “CCTGACTCTTGGGTTCTAACCTGTTGCCT (site CCTGAATCTAG)”, the “recombinant barcode read abundance (log10)” value was found to be 0.088.
The result for “CCTGACTCTTGGGTTCTAACCTGTTGCCT (site CCTGACTCTAG)” reads 0.85; that for “CCTGACTCTTGGGTTCTAACCTGTTGCCT (site CCTGAGTCTAG)”, 0.0146.
Consider “CCTGACTCTTGGGTTCTAACCTGTTGCCT (site CCTGATTCTAG)”, for which the “recombinant barcode read abundance (log10)” value was 0.195.
With “CCTGCGACTTGGGTTCTAACCTGTTGCCT (site CCTGCGACTAG)”, the “recombinant barcode read abundance (log10)” value worked out at 0.408.
Consider “CCTGCGACTTGGGTTCTAACCTGTTGCCT (site CCTGCGGCTAG)”, for which the “recombinant barcode read abundance (log10)” value was found to be 0.0687.
As for “CCTGCTCCTTGGGTTCTAACCTGTTGCTT (site CCTACTCCTAG)”, the “recombinant barcode read abundance (log10)” value stood at 0.0276.
With “CCTGCTCCTTGGGTTCTAACCTGTTGCTT (site CCTGCTCCTAA)”, the “recombinant barcode read abundance (log10)” value was found to be 0.393.
Regarding “CCTGGGACTTGGGTTCTAACCTGTTGCGA (site CCTGGGACTAC)”, the “recombinant barcode read abundance (log10)” value amounted to 0.0343.
Take “CCTGGGACTTGGGTTCTAACCTGTTGCGA (site CCTGGGACTCC)”: the “recombinant barcode read abundance (log10)” value was found to be 0.256.
Take “CCTGGGACTTGGGTTCTAACCTGTTGCGA (site CCTGGGACTGC)”: the “recombinant barcode read abundance (log10)” value worked out at 0.961.
Consider “CCTGGGACTTGGGTTCTAACCTGTTGCGA (site CCTGGGACTTC)”, for which the “recombinant barcode read abundance (log10)” value came out at 2.58.
For “CCTGGTCCTTGGGTTCTAACCTGTTGCCT (site CCTGGGGCTAG)”, the “recombinant barcode read abundance (log10)” value worked out at 0.16.
For “CCTGGTCCTTGGGTTCTAACCTGTTGCCT (site CCTGGTCCTAG)” the value was 1.56; for “CCTTAGACTTGGGTTCTAACCTGTTGCGT (site CCTAATACTAC)”, 0.107; for “CCTTAGACTTGGGTTCTAACCTGTTGCGT (site CCTTAGACTAC)”, 1.8.
Take “CCTTCTACTTGGGTTCTAACCTGTTGCCT (site CCTTCTACTAG)”: the “recombinant barcode read abundance (log10)” value turned out to be 0.225.
On to “CCTTCTACTTGGGTTCTAACCTGTTGCCT (site CCTTCTACTTA)”, for which the “recombinant barcode read abundance (log10)” value came to 0.
Take “CCTTGCCCTTGGGTTCTAACCTGTTGCCT (site CATTGCCCTAG)”: the “recombinant barcode read abundance (log10)” value amounted to 0.0176.
Turning to “CCTTGCCCTTGGGTTCTAACCTGTTGCCT (site CCTTGCCCTAG)”, the “recombinant barcode read abundance (log10)” value is 0.667.
In the case of “CCTTGCCCTTGGGTTCTAACCTGTTGCCT (site CGTTGCCCTAG)”, the “recombinant barcode read abundance (log10)” value came out at 0.1.
In the case of “CCTTGCCCTTGGGTTCTAACCTGTTGCCT (site CTTTGCCCTAG)”, the “recombinant barcode read abundance (log10)” value is 0.117.
“CCTTGTCCTTGGGTTCTAACCTGTTGCAG (site CCTTGTCCTCT)”: the “recombinant barcode read abundance (log10)” value was found to be 0.79.
Consider “CCTTGTCCTTGGGTTCTAACCTGTTGCAG (site CGTTGTCCTTT)”, for which the “recombinant barcode read abundance (log10)” value turned out to be 0.144.
For the sequence “CCTTGTGCTTGGGTTCTAACCTGTTGCGT (site CCTTGTGCTAC)”, the “recombinant barcode read abundance (log10)” value stood at 0.158.
With “CCTTGTGCTTGGGTTCTAACCTGTTGCGT (site TAGGTATCTCT)”, the “recombinant barcode read abundance (log10)” value worked out at 0.0915.
For “CCTTGTTCTTGGGTTCTAACCTGTTGCCT (site ACTTGTTCTAG)” the value was 0.105.
For the sequence “CCTTGTTCTTGGGTTCTAACCTGTTGCCT (site CCTTGTTCTAG)”, the “recombinant barcode read abundance (log10)” value was found to be 0.0314.
Take “CCTTGTTCTTGGGTTCTAACCTGTTGCCT (site GCTTGTTCTAG)”: the “recombinant barcode read abundance (log10)” value came out at 0.14.
On to “CCTTGTTCTTGGGTTCTAACCTGTTGCCT (site TCTTGTTCTAG)”, for which the “recombinant barcode read abundance (log10)” value stood at 0.0322.
For “CCTTGTTCTTGGGTTCTAACCTGTTGCTA (site CCTTGTTCTTA)” the value was 0.113; for “CCTTGTTCTTGGGTTCTAACCTGTTGCTA (site TCGTGTTCTTA)”, 0.149.
For “CGAAATGCTTGGGTTCTAACCTGTTGCCT (site CGAAATGCTAG)” the value was 0.798; for “CGAAATGCTTGGGTTCTAACCTGTTGCCT (site CGCAATGCTAG)”, 0.0184.
With “CGAAATGCTTGGGTTCTAACCTGTTGCCT (site CGGAATGCTAG)”, the “recombinant barcode read abundance (log10)” value was determined as 0.035.
In the case of “CGAAATGCTTGGGTTCTAACCTGTTGCCT (site CGTAATGCTAG)”, the “recombinant barcode read abundance (log10)” value came out at 0.77.
Turning to “CGAACGACTTGGGTTCTAACCTGTTGCTT (site CGAACGACTAA)”, the “recombinant barcode read abundance (log10)” value was 0.0324.
On to “CGAACGACTTGGGTTCTAACCTGTTGCTT (site CGAACGACTAG)”, for which the “recombinant barcode read abundance (log10)” value was 0.113.
Take “CGAACTACTTGGGTTCTAACCTGTTGCCT (site CGAACTACTAA)”: the “recombinant barcode read abundance (log10)” value was found to be 0.0404.
Consider “CGAACTACTTGGGTTCTAACCTGTTGCCT (site CGAACTACTAC)”, for which the “recombinant barcode read abundance (log10)” value was determined as 0.311.
“CGAACTACTTGGGTTCTAACCTGTTGCCT (site CGAACTACTAG)”: the “recombinant barcode read abundance (log10)” value turned out to be 0.0694.
Turning to “CGAACTACTTGGGTTCTAACCTGTTGCCT (site CGAACTACTAT)”, the “recombinant barcode read abundance (log10)” value turned out to be 0.316.
On to “CGAATGTCTTGGGTTCTAACCTGTTGCGT (site CGAATGTCTAC)”, for which the “recombinant barcode read abundance (log10)” value was 0.991.
Turning to “CGAATGTCTTGGGTTCTAACCTGTTGCGT (site CGACTGCCTAC)”, the “recombinant barcode read abundance (log10)” value was 0.0251.
Take “CGACAGTCTTGGGTTCTAACCTGTTGCGT (site CGACAGTCTAC)”: the “recombinant barcode read abundance (log10)” value was found to be 2.41.
As to “CGACAGTCTTGGGTTCTAACCTGTTGCGT (site CGGCAGTCTAC)”, the “recombinant barcode read abundance (log10)” value is 0.153.
For “CGACCCTCTTGGGTTCTAACCTGTTGCCT (site AGACCCTCTAG)” the value was 0.0358.
